Laboratory results: publication PMC6556873, “Rapid Covalent-Probe Discovery by Electrophile-Fragment Screening” (Journal of the American Chemical Society, 2019)
Like-named read-outs stand apart in the source and are kept apart here.

Tests used:
[1] = target: T1, BSA (Bos taurus, UniProt P02769); set-up: Intact protein LC/MS covalent labelling, fragments in pools of five, 200 uM each, 4 °C; conditions: 24 h, 4 °C, pool of five; 200 µM; covalent
T1 construct: gene ALB

[2] = target: T2, NNMT (hNNMT) (Homo sapiens, UniProt P40261); set-up: Intact protein LC/MS covalent labelling, fragments in pools of five, 200 uM each, 4 °C; conditions: 24 h, 4 °C, pool of five; 200 µM; covalent
T2 construct: wild type, N-terminal His6 tag kept (no cleavage described), E. coli, construct 31248 Da
T2 sequence (P40261 1-264): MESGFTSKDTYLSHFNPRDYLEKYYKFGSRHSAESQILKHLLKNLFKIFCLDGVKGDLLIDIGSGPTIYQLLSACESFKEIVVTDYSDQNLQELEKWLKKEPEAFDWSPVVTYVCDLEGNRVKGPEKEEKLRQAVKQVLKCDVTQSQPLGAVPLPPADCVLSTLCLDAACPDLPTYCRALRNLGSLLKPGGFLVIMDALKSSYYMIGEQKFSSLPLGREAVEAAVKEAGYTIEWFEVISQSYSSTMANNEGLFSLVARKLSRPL

[3] = target: T3, NUDT7 (Homo sapiens, UniProt P0C024); set-up: Intact protein LC/MS covalent labelling, fragments in pools of five, 200 uM each, 4 °C; conditions: 24 h, 4 °C, pool of five; 200 µM; covalent
T3 construct: residues 14-235, E. coli, pNIC28-Bsa4, N-terminal His6 tag removed by TEV, construct 26672 Da

[4] = target: T4, OTUB2 (OTUB2A) (Homo sapiens, UniProt Q96DC9); set-up: Intact protein LC/MS covalent labelling, fragments in pools of five, 200 uM each, 4 °C; conditions: 24 h, 4 °C, pool of five; 200 µM; covalent
T4 construct: full length residues 1-234, E. coli BL21(DE3)-R3, His tag removed by TEV, construct 27312 Da
T4 sequence (Q96DC9 1-234): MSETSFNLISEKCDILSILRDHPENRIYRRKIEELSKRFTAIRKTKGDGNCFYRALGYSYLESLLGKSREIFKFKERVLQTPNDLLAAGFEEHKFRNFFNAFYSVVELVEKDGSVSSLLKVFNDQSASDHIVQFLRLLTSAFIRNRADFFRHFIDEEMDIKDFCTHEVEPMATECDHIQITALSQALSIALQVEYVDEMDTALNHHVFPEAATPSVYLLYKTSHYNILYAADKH

[5] = target: T5, PCAF (Homo sapiens, UniProt Q92831); set-up: Intact protein LC/MS covalent labelling, fragments in pools of five, 200 uM each, 4 °C; conditions: 24 h, 4 °C, pool of five; 200 µM; covalent
T5 construct: gene KAT2B

[6] = in vitro; set-up: species or system CCD841, HEK293; conditions: human, hb2 cells, read-out: HB-2 Cells Viability (%)
[7] = in vitro; set-up: species or system HB2, HEK293; conditions: human, ccd841 cells
[8] = in vitro; set-up: species or system HB2, CCD841; conditions: human, hek293 cells

T1 sequence (P02769 whole entry, the tested form may be a part): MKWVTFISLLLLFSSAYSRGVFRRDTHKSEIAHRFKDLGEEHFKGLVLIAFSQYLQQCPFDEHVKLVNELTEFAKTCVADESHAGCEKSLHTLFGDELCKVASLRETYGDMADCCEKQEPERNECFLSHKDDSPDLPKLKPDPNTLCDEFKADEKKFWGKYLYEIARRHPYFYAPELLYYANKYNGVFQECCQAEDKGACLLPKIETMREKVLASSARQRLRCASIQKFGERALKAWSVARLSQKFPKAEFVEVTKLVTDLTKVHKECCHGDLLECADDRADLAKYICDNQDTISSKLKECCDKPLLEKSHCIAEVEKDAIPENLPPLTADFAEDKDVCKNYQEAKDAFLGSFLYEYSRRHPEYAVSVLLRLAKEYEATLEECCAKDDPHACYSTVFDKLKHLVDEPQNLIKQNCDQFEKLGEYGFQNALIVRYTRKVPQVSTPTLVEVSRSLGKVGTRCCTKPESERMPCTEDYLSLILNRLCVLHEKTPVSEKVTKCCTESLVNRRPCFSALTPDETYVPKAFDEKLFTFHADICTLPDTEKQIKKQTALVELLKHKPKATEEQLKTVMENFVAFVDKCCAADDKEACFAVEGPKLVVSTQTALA
T5 sequence (Q92831 whole entry, the tested form may be a part): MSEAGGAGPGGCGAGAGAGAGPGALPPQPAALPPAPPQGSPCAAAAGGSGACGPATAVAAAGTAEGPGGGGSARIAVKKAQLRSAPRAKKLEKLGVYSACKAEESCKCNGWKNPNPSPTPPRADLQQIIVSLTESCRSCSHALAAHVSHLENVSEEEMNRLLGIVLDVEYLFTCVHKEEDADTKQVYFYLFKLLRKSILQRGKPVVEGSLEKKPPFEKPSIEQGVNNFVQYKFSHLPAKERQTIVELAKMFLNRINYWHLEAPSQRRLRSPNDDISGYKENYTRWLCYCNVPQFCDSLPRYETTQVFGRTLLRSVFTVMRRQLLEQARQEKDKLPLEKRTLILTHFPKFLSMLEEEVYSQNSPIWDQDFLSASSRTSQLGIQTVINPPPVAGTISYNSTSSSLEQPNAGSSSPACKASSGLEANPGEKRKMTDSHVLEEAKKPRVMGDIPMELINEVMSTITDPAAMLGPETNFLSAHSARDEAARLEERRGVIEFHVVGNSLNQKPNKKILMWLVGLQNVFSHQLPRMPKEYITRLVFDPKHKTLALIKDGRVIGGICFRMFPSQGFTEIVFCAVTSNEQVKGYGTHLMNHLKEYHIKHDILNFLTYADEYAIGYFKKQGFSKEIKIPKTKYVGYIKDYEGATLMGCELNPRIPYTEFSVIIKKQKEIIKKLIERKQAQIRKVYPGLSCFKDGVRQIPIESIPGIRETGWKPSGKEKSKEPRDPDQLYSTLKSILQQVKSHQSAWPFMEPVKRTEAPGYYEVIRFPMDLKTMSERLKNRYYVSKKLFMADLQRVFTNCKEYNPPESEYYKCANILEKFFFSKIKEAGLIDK
T3 sequence (P0C024 14-235): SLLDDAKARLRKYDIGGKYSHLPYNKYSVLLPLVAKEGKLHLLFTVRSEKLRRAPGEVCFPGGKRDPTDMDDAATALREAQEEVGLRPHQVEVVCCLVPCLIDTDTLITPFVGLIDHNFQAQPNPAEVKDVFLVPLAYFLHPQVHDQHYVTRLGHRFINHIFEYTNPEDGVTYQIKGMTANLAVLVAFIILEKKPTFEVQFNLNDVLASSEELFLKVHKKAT

| Compound | BSA [1] | NNMT [2] | NUDT7 [3] | OTUB2 [4] | PCAF [5] | viability at 48 h, 10 µM [6] | viability at 48 h, 10 µM [7] | viability at 48 h, 10 µM [8] |
| --- | --- | --- | --- | --- | --- | --- | --- | --- |
| C=CC(=O)N1CCCC(Cc2nnc3ccccn23)C1 (stereo not drawn) [PCM-0102909] | 0 | 0 | 0 | 0 | 0 | 101% | 87.9% | 108% |
| O=C(CCl)NC(=O)Nc1ccc2c(c1)OCCCO2 [PCM-0102910] | 0 | 0.69 | 0 | 0 | 0 | 67.5% | 67.2% | 81% |
| COC(=O)c1cc(Cl)cc(Cl)c1NC(=O)CCl [PCM-0102912] | 0.11 | 0.11 | 0.17 | 0 | 0 | 97% | 90.6% | 106% |
| C=CC(=O)Nc1cc(F)ccc1C [PCM-0102917] | 0 | 0 | 0 | 0 | 0 | 103% | 106% | 76.3% |
| CC(=O)c1oc2ccccc2c1NC(=O)CCl [PCM-0102918] | 0 | 0.56 | 0.39 | 0 | 0 | 42.4% | 65.3% | 36.8% |
| C=CC(=O)N1CCC(Oc2cnc3ccccc3n2)CC1 [PCM-0102925] | 0 | 0 | 0 | 0 | 0 | 107% | 102% | 86.8% |
| COc1ccc(C2=CCN(C(=O)CCl)CC2)cc1 [PCM-0102929] | 0 | 0.22 | 0.45 | 0 | 0 | 59.4% | 90.4% | 71% |
| O=C(CCl)NC1CCN(C(=O)C2CCCCC2)CC1 [PCM-0102931] | 0 | 0 | 0 | 0.09 | 0 | 82.9% | 78.6% | 118% |
| CC(=O)N1CCC(NC(=O)CCl)CC1 [PCM-0102932] | 0 | 0 | 0 | 0.07 | 0 | 95.1% | 85.9% | 88% |
| N#Cc1cccc(CNC(=O)CCl)c1 [PCM-0102936] | 0 | 0 | 0 | 0.32 | 0 | 97.1% | 94.9% | 83.1% |
| CN(Cc1ccc(F)cc1)C(=O)CCl [PCM-0102939] | 0 | 0 | 0 | 0.1 | 0 | 34.8% | 69.2% | 42.7% |
| O=C(CCl)N1CCOC1=O [PCM-0102943] | 0 | 0 | 0.08 | 0 | 0 | 101% | 109% | 108% |
| Cc1nc(C2(NC(=O)CCl)CCCCCC2)no1 [PCM-0102944] | 0 | 0 | 0 | 0 | 0 | 103% | 113% | 129% |
| Cl.O=C(CCl)NCc1ccccn1 [PCM-0102950] | 0 | 0 | 0 | 0 | 0 | 100% | 109% | 97.4% |
| C=CC(=O)NCC1CCCc2sc(C)nc21 (stereo not drawn) [PCM-0102952] | 0 | 0 | 0 | 0 | 0 | 97.6% | 114% | 95.2% |
| Cc1ccc(NC(=O)CCl)cc1Br [PCM-0102955] | 0 | 0.78 | 0.27 | 0.14 | 0 | 41.5% | 71.2% | 38.3% |
| CN(Cc1ccc2c(c1)OCCO2)C(=O)CCl [PCM-0102958] | 0 | 0 | 0.27 | 0.09 | 0 | 74.4% | 81% | 52% |
| Cc1ccc(C(=O)N2CCN(C(=O)CCl)CC2)cc1 [PCM-0102962] | 0 | 0 | 0 | 0 | 0 | 30.1% | 75.3% | 15.6% |
| C=CC(=O)N1CCCN(c2ccc(-c3ccccc3)nn2)CC1 [PCM-0102964] | 0 | 0 | 0 | 0 | 0 | 102% | 103% | 87.2% |
| C=CC(=O)Nc1ccccc1C(=O)OC [PCM-0102967] | 0 | 0 | 0.51 | 0 | 0 | 90.2% | 81% | 68.8% |
| O=C(CCl)N1CCC(C(=O)N2CCCCC2)CC1 [PCM-0102972] | 0 | 0 | 0 | 0.08 | 0 | 84.6% | 106% | 76.6% |
| COC(=O)C1CCN(C(=O)CCl)CC1 [PCM-0102978] | 0 | 0 | 0 | 0 | 0 | 100% | 110% | 99.4% |
| O=C(CCl)N1CCCC1=O [PCM-0102982] | 0 | 0 | 0 | 0 | 0 | 111% | 101% | 114% |
| Cc1nc(C2(NC(=O)CCl)CCCCC2)no1 [PCM-0102983] | 0 | 0 | 0.1 | 0 | 0 | 102% | 112% | 99.7% |
| CN(Cc1ccccc1)C(=O)CCl [PCM-0102984] | 0 | 0 | 0.11 | 0 | 0 | 78.6% | 91.6% | 55.2% |
| C=CC(=O)N1CCC(C(=O)c2cccs2)CC1 [PCM-0102989] | 0 | 0 | 0 | 0 | 0 | 97.7% | 97.9% | 102% |
| C=CC(=O)NC1CCCN(c2cc(C)nn2C)C1=O (stereo not drawn) [PCM-0102991] | 0 | 0 | 0 | 0 | 0 | 98.2% | 113% | 94.5% |
